This note sets out measurements from US6720139B1, “Genes identified as required for proliferation in Escherichia coli” (priority 1999, dated 2004).

Data set [1] has as its system E. coli cells expressing antisense RNA to rplL, rplJ, rplW or to comparison genes (elaD, visC, yohH, atpB/E). In words: Antibiotic sensitivity of cells expressing antisense RNA (Example 9). Type of data set: cell-based. To be noted: for sensitivity to erythromycin: initial experiments. The source says:
The effectiveness of the above cell based assay was validated using constructs expressing antisense RNA to E. coli genes rplL, rplJ, and rplW encoding ribosomal proteins L7/L12, L10 and L23 respectively. These proteins are part of the protein synthesis apparatus of the cell and as such are required for proliferation. These constructs were used to test the effect of antisense expression on cell sensitivity to antibiotics known to bind to the ribosome and thereby inhibit protein synthesis. Constructs expressing antisense RNA to several other genes (elaD, visC, yohH, and aptE/B), the products of which are not involved in protein synthesis were used for comparison.
First expression vectors containing antisense constructs to either rplW or to elaD were introduced into separate E. coli cell populations. Vector introduction is a technique well known to those of ordinary skill in the art. The expression vectors of this example contain IPTG inducible promoters that drive the expression of the antisense RNA in the presence of the inducer. However, those skilled in the art will appreciate that other inducible promoters may also be used. Suitable expression vectors are also well known in the art. The E. coli antisense clones encoding ribosomal proteins L7/L12, L10 and L23 were used to test the effect of antisense expression on cell sensitivity to the antibiotics known to bind to these proteins. […]
Cells were pretreated with the selected concentration of IPTG and then used to test the sensitivity of cell populations to tetracycline, erythromycin and other protein synthesis inhibitors. […] Cells were grown to log phase and then diluted into media alone or media containing IPTG at concentrations which give 20% and 50% growth inhibition as determined by IPTG dose response curves. […] The 96 well plates were incubated at 37° C. and the OD600 was read by a plate reader every 5 minutes for up to 15 hours. For each IPTG concentration and the no IPTG control, tetracycline dose response curves were determined when the control (absence of tetracycline) reached 0.1 OD600.

The subject of data set [2] is bacterial strain engineered for expression of an antisense against rplL and rplJ (50S ribosomal subunit proteins). In words: microbe, parasite or virus in culture. The data set is classed as cell-based, E. coli. The method, then: A panel of test antibiotics known to act on different pathways is tested side by side with three to four wells being used to evaluate the effect of a test antibiotic on cell growth at each concentration. Equal volumes of test antibiotic and cells are added to the wells of a 384 well microtiter plate and mixed. Cells are prepared as described above using the media selected for assay development supplemented with the antibiotic required to maintain the antisense construct and are diluted 1:100 in identical media immediately prior to addition to the microtiter plate wells. For a control, cells are also added to several wells that contain the solvent used to dissolve the antibiotics but no antibiotic. Cell growth is monitored continuously by incubation at 37° C. in a microtiter plate reader monitoring the OD600 of the wells over an 18-hour period. […] A plot of percent inhibition against log[antibiotic concentration] allows extrapolation of an IC50 value for each antibiotic.
Two fold dilution series of the panel of test antibiotics used above are generated in each of these media. Several antibiotics are tested side by side with three to four wells being used to evaluate the effects of an antibiotic on cell growth at each concentration, in each media. Equal volumes of test antibiotic and cells are added to the wells of a 384 well microtiter plate and mixed. Cells are prepared as described above using the media selected for use in the assay supplemented with the antibiotic required to maintain the antisense construct. […] Immediately prior to addition to the microtiter plate wells, the cultures are adjusted to an appropriate OD600 (typically 0.002) by dilution into warm (37° C.) sterile media supplemented with identical concentrations of the inducer and antibiotic used to maintain the antisense construct. […] Cell growth is monitored continuously by incubation at 37° C. in a microtiter plate reader monitoring the OD600 of the wells over an 18-hour period. […]

For the next data set, the system named is E. coli. In words: Inhibition of bacterial proliferation after IPTG induction of antisense clones (Example 1). Type of data set: cell-based, Escherichia coli. Particulars: 1 mM IPTG, liquid or solid medium. As for the experimental part: To study the effects of transcriptional induction in liquid medium, growth curves were carried out by back diluting cultures 1:200 into fresh media with or without 1 mM IPTG and measuring the OD450 every 30 minutes (min). To study the effects of transcriptional induction on solid medium, 10^2, 10^3, 10^4, 10^5, 10^6, 10^7 and 10^8 fold dilutions of overnight cultures were prepared. Aliquots of from 0.5 to 3 μl of these dilutions were spotted on selective agar plates with or without 1 mM IPTG. After overnight incubation, the plates were compared to assess the sensitivity of the clones to IPTG.
Of the numerous clones tested, some clones were identified as, a containing sequence that inhibited E. coli growth after IPTG induction. Accordingly, the gene to which the inserted nucleic acid sequence corresponds, or a gene within the operon containing the inserted nucleic acid, may be required for proliferation in E. coli.

A word on the IC50: it is the midpoint of a concentration-inhibition curve.

≈ marks a conversion by molar mass, not a printed value. Read-outs that look alike come from different tables or passages of the source. Positions of bridges follow the written chain, without caps; N, C: chain ends. Non-standard residues stand in square brackets, D forms with d. Residues, ends and D or L forms follow the SMILES beside them. *: point of attachment. Ileψ(thiazoline)Cys = CC[C@H](C)[C@H](N)C1=N[C@H](C(=O)*)CS1; dOrn = NCCC[C@@H](N)C(=O)O

Regarding `CCn1cc(C(=O)O)c(=O)c2ccc(C)nc21` [Nalidixic acid], the “sensitivity to antibiotics which do not inhibit protein synthesis” value in data set [1] (clone expressing antisense to rplL and rplJ) is “does not show increased sensitivity”.

Regarding `CC[C@H](C)[C@H](N)C1=N[C@H](C(=O)N[C@@H](CC(C)C)C(=O)N[C@H](CCC(=O)O)C(=O)N[C@H](C(=O)N[C@H]2CCCCNC(=O)[C@H](CC(N)=O)NC(=O)[C@@H](CC(=O)O)NC(=O)[C@H](Cc3cnc[nH]3)NC(=O)[C@@H](Cc3ccccc3)NC(=O)[C@H]([C@@H](C)CC)NC(=O)[C@@H](CCCN)NC2=O)[C@@H](C)CC)CS1` [Bacitracin] ({Ileψ(thiazoline)Cys}-L[dE]IK[dOrn]I[dF]H[dD]N; lactam 4-C), the IC50 in data set [2] (read-out: IC50 (+IPTG)) was 4680 µg/mL (≈ 3290 µM); in data set [2] (read-out: IC50 (−IPTG)) it was 4080 µg/mL (≈ 2870 µM).

As to `CN(C)c1ccc(O)c2c1C[C@H]1C[C@H]3[C@H](N(C)C)C(O)=C(C(N)=O)C(=O)[C@@]3(O)C(O)=C1C2=O` [Minocycline], the IC50 in data set [2] (read-out: IC50 (+IPTG)) came out at 0.0034 µg/mL (≈ 0.00743 µM).

With `CC[C@H]1OC(=O)[C@H](C)[C@@H](O[C@H]2C[C@@](C)(OC)[C@@H](O)[C@H](C)O2)[C@H](C)[C@@H](O[C@@H]2O[C@H](C)C[C@H](N(C)C)[C@H]2O)[C@](C)(O)C[C@@H](C)C(=O)[C@H](C)[C@@H](O)[C@]1(C)O` [Erythromycin], the sensitivity to erythromycin result in data set [1] (clones expressing antisense to non-protein synthesis genes elaD, atpB/E and visC) is on record as “do not”; in data set [1] (clones expressing antisense to protein synthesis genes (L7/L12 & L10, L7/L12 alone, L22, L18, rRNA, Elongation Factor G)), “increased sensitivity”.

B1: EcXA046: identified clone corresponding to an intergenic sequence, fimE, fimA (nucleic acid)
DNA: TTTGTTGGCTTAATATTCTATTGTTATCTTTATTTATAGATGTTTATATTGCATGAGGTGGTTTTTGGAGAGAAGAATGAGGAAGATGCGTCGAGCCACAGAAACGTTAGCTTTACATATAGCGGAGGTGATGTGAATTTAATTTACAATAGAAATAATTTACATATCAAACAGTTAGATGCTTTTTGTCG
modifications: E. Coli
On to B1, for which the “E. coli growth after IPTG induction of antisense expression” value (from here on “E. coli growth after IPTG induction”) with E. coli was “reduction in cell growth”.

B2: EcXA053: identified antisense clone, gene gor (nucleic acid, listed as Escherichia coli)
DNA 1: TGGAGAAAACGGGTGATTGATAAAGCAATCATCGTTCTAGGGGCGTTAATTGCGCTGCTGGAACTGATCCCGCTTTCTGCTTCAAGCTTCTGAACTGGATACGGAAACGTAATNAGGGCTAAAGAAGACACTACTCTTAGCCCTTTAACATTTAACGCATTGTCACGAACTCTTCTGCCGCCGTTGGGTGAATGGCGACGGGTATTGGTCGAAATCTTTTTTGGGTGGCCCCATCTTTAACGCCCACCCGCGAAACCCTGCAACATTTCGTC
DNA 2: TGGAGAAAACGGGTGATTGATAAAGCAATCATCGTTCTAGGGGCGTTAATTGCGCTGCTGGAACTGATCCGCTTTCTGCTTCAGCTTCTGAACTGATAGCGGAAACGTAATTAAGGGCTAAGAGCACACTACTCTTAGCCCTTTAACATTTAACGCATTGTCACGAACTCTTCTGCCGCCGTTGGGTGAATGGCGACGGTATTGTCGAAGTCTTTTTTGGTTGCCCCCATCTTCAGCGCCACCGCGAAGCCCTGCAACATTTCGTC
modifications: E. Coli; misc_feature (1)...(272): n = A,T,C or G
notes: identified antisense clone, gene gor
B2: the “E. coli growth after IPTG induction” value in the data set on E. coli is reported as “reduction in cell growth”.

B3: EcXA006: identified antisense clone, gene pta (nucleic acid)
DNA: GCGCATACCCTGCAGCATCGGCCCGATGGAGATCAGGTCGGCAGAACGCTGTACCGCTTTGTAGGTGGTGTTACCGGTGNTCAGATCCGGGAAGATGAACACGGTAGCGCGACCTGCAACCGGAGAGTTCGGCGCTTTGGATTNCGCAACGTCAGCCATTACCGCAGCGTCGTACTGCAGCGGACCGGCGATCATCAGGTCA
modifications: E. Coli; misc_feature (1)...(202): n = A,T,C or G
notes: identified antisense clone, gene pta
Consider B3, for which, in the data set on E. coli, the “E. coli growth after IPTG induction” value is given as “reduction in cell growth”.

B4: EcXA044: identified antisense clone, gene purB (nucleic acid)
DNA: TTAATTATTAAAATAGTGTAACGCGATTATGTGGTTATGGGGGTAAACATTAAATAAACCAGCGGGGAGGGGAGGTAAAGTGAAAAAATAAAAAGCGGATAATCTTAATAAGCAGGCCGGACAGCATCGCCATCCGGCACTGATACGAGGTTTATTTCAGCTCATCAACCATCG
modifications: E. Coli
notes: identified antisense clone, gene purB
Consider B4, for which the “E. coli growth after IPTG induction” value in the data set on E. coli is given as “reduction in cell growth”.
